Data on 25 substances can be found in the OligoGym collection.

HELM strings list units from the 5' end as sugar, base in round brackets, then linkage (d deoxyribose, r ribose, m 2'-O-methyl, p phosphodiester). Strings are as the collection lists them; they lack the last nucleoside at the 3' end of the tested compound. [moe] = 2'-O-(2-methoxyethyl) (MOE); [sp] = phosphorothioate linkage; [m5C] = 5-methylcytosine

For the data set, the target named is PRNP. Briefly: mouse, dose not given. The conditions noted are these: ASO.

“RNA1{[moe](G)[sp].[moe]([m5C])p.[moe](T)p.[moe](T)p.[moe](A)p.[moe]([m5C])p.d(T)[sp].d([m5C])[sp].d(G)[sp].d(G)[sp].d([m5C])[sp].d(T)[sp].d(T)[sp].d(G)[sp].d(T)[sp].d(T)[sp].[moe]([m5C])p.[moe]([m5C])[sp].[moe](A)}$$$$ (last 3' nucleoside missing)” returned a 3 h FOB score of 0.75 score 0-7.

Regarding “RNA1{[moe](G)[sp].[moe]([m5C])p.[moe](T)p.[moe](T)p.[moe](A)p.d(T)[sp].d(T)[sp].d(A)[sp].d(T)[sp].d(T)[sp].d([m5C])[sp].d(A)[sp].d(T)[sp].d(G)[sp].[moe](T)[sp].[moe](T)p.[moe]([m5C])p.[moe](T)}$$$$ (last 3' nucleoside missing)”, the 3 h FOB score is 1 score 0-7.

“RNA1{[moe](G)[sp].[moe]([m5C])p.[moe](T)p.[moe](T)p.[moe](A)p.d([m5C])[sp].d(T)[sp].d([m5C])[sp].d(G)[sp].d(G)[sp].d([m5C])[sp].d(T)[sp].d(T)[sp].d(G)[sp].[moe](T)[sp].[moe](T)p.[moe]([m5C])p.[moe]([m5C])}$$$$ (last 3' nucleoside missing)” gave a 3 h FOB score of 4.5 score 0-7.

“RNA1{[moe](G)[sp].[moe]([m5C])p.[moe](T)p.[moe](T)p.[moe](T)[sp].d(G)[sp].d(G)[sp].d(A)[sp].d(T)[sp].d([m5C])[sp].d(T)[sp].d([m5C])[sp].d(T)[sp].d(T)[sp].d(A)[sp].[moe](G)p.[moe](A)p.[moe](T)[sp].[moe](T)}$$$$ (last 3' nucleoside missing)” showed a 3 h FOB score of 0 score 0-7.

As for “RNA1{[moe](G)[sp].[moe]([m5C])p.[moe](T)p.[moe](T)p.[moe]([m5C])[sp].d(T)[sp].d([m5C])[sp].d(A)[sp].d(A)[sp].d(T)[sp].d(T)[sp].d(T)[sp].d(T)[sp].d(T)[sp].d([m5C])[sp].[moe]([m5C])p.[moe](A)p.[moe](A)[sp].[moe]([m5C])}$$$$ (last 3' nucleoside missing)”, the 3 h FOB score was determined as 0 score 0-7.

As for “RNA1{[moe](G)[sp].[moe]([m5C])p.[moe](T)p.[moe](T)p.d(A)[sp].d(T)[sp].d(T)[sp].d(A)[sp].d(T)[sp].d(T)[sp].d([m5C])[sp].d(A)[sp].d(T)[sp].d(G)[sp].[moe](T)p.[moe](T)p.[moe]([m5C])p.[moe](T)[sp].[moe]([m5C])}$$$$ (last 3' nucleoside missing)”, the 3 h FOB score is 1 score 0-7.

Consider “RNA1{[moe](G)[sp].[moe]([m5C])p.[moe](T)p.[moe](T)p.d(A)[sp].d([m5C])[sp].d(T)[sp].d([m5C])[sp].d(G)[sp].d(G)[sp].d([m5C])[sp].d(T)[sp].d(T)[sp].d(G)[sp].[moe](T)p.[moe](T)p.[moe]([m5C])p.[moe]([m5C])[sp].[moe](A)}$$$$ (last 3' nucleoside missing)”, for which the 3 h FOB score was found to be 3.25 score 0-7.

For the substance “RNA1{[moe](G)[sp].[moe]([m5C])p.[moe](T)p.[moe]([m5C])p.[moe](T)[sp].d(A)[sp].d(T)[sp].d(T)[sp].d(A)[sp].d(A)[sp].d(T)[sp].d(A)[sp].d(G)[sp].d(G)[sp].d(T)[sp].[moe](T)p.[moe](A)p.[moe](G)[sp].[moe](G)}$$$$ (last 3' nucleoside missing)”, the 3 h FOB score came to 4.25 score 0-7.

Regarding “RNA1{[moe](G)[sp].[moe]([m5C])p.[moe]([m5C])p.[moe](A)p.[moe](A)[sp].d(G)[sp].d(G)[sp].d(G)[sp].d(T)[sp].d(A)[sp].d(T)[sp].d(T)[sp].d(G)[sp].d(A)[sp].d(T)[sp].[moe](T)p.[moe](A)p.[moe](G)[sp].[moe]([m5C])}$$$$ (last 3' nucleoside missing)”, the 3 h FOB score was found to be 3.5 score 0-7.

In turn, “RNA1{[moe](G)[sp].[moe]([m5C])p.[moe]([m5C])p.[moe](A)p.[moe](A)[sp].d(T)[sp].d(A)[sp].d(A)[sp].d(T)[sp].d(A)[sp].d(A)[sp].d([m5C])[sp].d(A)[sp].d(T)[sp].d(T)[sp].[moe](G)p.[moe]([m5C])p.[moe](A)[sp].[moe](G)}$$$$ (last 3' nucleoside missing)” came in with a 3 h FOB score of 0 score 0-7.

With “RNA1{[moe](G)[sp].[moe]([m5C])p.[moe]([m5C])p.[moe](A)p.[moe]([m5C])[sp].d(A)[sp].d(T)[sp].d(A)[sp].d(T)[sp].d(A)[sp].d(G)[sp].d(G)[sp].d(G)[sp].d(T)[sp].d([m5C])[sp].[moe]([m5C])p.[moe](T)p.[moe](T)[sp].[moe](T)}$$$$ (last 3' nucleoside missing)”, the 3 h FOB score amounted to 1.5 score 0-7.

As for “RNA1{[moe](G)[sp].[moe]([m5C])p.[moe]([m5C])p.[moe](A)p.[moe]([m5C])p.[moe](A)p.d(T)[sp].d(A)[sp].d(T)[sp].d(A)[sp].d(G)[sp].d(G)[sp].d(G)[sp].d(T)[sp].d([m5C])[sp].d([m5C])[sp].[moe](T)p.[moe](T)[sp].[moe](T)}$$$$ (last 3' nucleoside missing)”, the 3 h FOB score stood at 4 score 0-7.

“RNA1{[moe](G)[sp].[moe]([m5C])p.[moe]([m5C])p.[moe](A)p.d([m5C])[sp].d(A)[sp].d(T)[sp].d(A)[sp].d(T)[sp].d(A)[sp].d(G)[sp].d(G)[sp].d(G)[sp].d(T)[sp].[moe]([m5C])p.[moe]([m5C])p.[moe](T)p.[moe](T)[sp].[moe](T)}$$$$ (last 3' nucleoside missing)”: the 3 h FOB score turned out to be 3.75 score 0-7.

For “RNA1{[moe](G)[sp].[moe]([m5C])p.[moe]([m5C])p.[moe](T)p.[moe](T)[sp].d(A)[sp].d(A)[sp].d(T)[sp].d(T)[sp].d(A)[sp].d([m5C])[sp].d([m5C])[sp].d(T)[sp].d(A)[sp].d(T)[sp].[moe](A)p.[moe](G)p.[moe](T)[sp].[moe](T)}$$$$ (last 3' nucleoside missing)”, the 3 h FOB score was found to be 1 score 0-7.

Consider “RNA1{[moe](T)[sp].[moe](A)p.[moe](G)p.[moe](G)p.[moe]([m5C])[sp].d(T)[sp].d([m5C])[sp].d(T)[sp].d(T)[sp].d(T)[sp].d(T)[sp].d([m5C])[sp].d([m5C])[sp].d(A)[sp].d(G)[sp].[moe](G)p.[moe](T)p.[moe](G)[sp].[moe](T)}$$$$ (last 3' nucleoside missing)”, for which the 3 h FOB score is 1 score 0-7.

“RNA1{[moe](T)[sp].[moe](A)p.[moe](T)p.[moe](G)p.[moe](T)p.d(T)[sp].d(T)[sp].d(T)[sp].d([m5C])[sp].d([m5C])[sp].d(A)[sp].d(G)[sp].d(T)[sp].d(G)[sp].[moe]([m5C])p.[moe]([m5C])p.[moe]([m5C])[sp].[moe](A)}$$$$ (last 3' nucleoside missing)” displayed a 3 h FOB score of 5.25 score 0-7.

Substance “RNA1{[moe](T)[sp].[moe](A)p.[moe]([m5C])p.[moe](T)p.[moe](T)[sp].d(G)[sp].d(T)[sp].d([m5C])[sp].d(A)[sp].d(G)[sp].d(T)[sp].d(T)[sp].d(T)[sp].d(T)[sp].d(T)[sp].[moe]([m5C])p.[moe]([m5C])p.[moe]([m5C])[sp].[moe]([m5C])}$$$$ (last 3' nucleoside missing)” came in with a 3 h FOB score of 4.5 score 0-7.

“RNA1{[moe](T)[sp].[moe](A)p.[moe]([m5C])p.[moe](T)p.[moe]([m5C])[sp].d(T)[sp].d(A)[sp].d(T)[sp].d(G)[sp].d(T)[sp].d(T)[sp].d(T)[sp].d(T)[sp].d([m5C])[sp].d([m5C])[sp].[moe](A)p.[moe](G)p.[moe](T)[sp].[moe](G)}$$$$ (last 3' nucleoside missing)”: the 3 h FOB score came to 1.75 score 0-7.

“RNA1{[moe](T)[sp].[moe](G)p.[moe](G)p.[moe](A)p.[moe](A)[sp].d(G)[sp].d(A)[sp].d([m5C])[sp].d(T)[sp].d(T)[sp].d(G)[sp].d(T)[sp].d(G)[sp].d(T)[sp].d(T)[sp].[moe](A)p.[moe](G)p.[moe](A)[sp].[moe](T)}$$$$ (last 3' nucleoside missing)” came in with a 3 h FOB score of 6.5 score 0-7.

As to “RNA1{[moe](T)[sp].[moe](G)p.[moe](G)p.[moe](G)p.[moe](A)[sp].d(G)[sp].d(T)[sp].d(A)[sp].d(T)[sp].d([m5C])[sp].d(A)[sp].d(A)[sp].d(T)[sp].d(T)[sp].d(T)[sp].[moe](A)p.[moe](A)p.[moe](G)[sp].[moe]([m5C])}$$$$ (last 3' nucleoside missing)”, the 3 h FOB score stood at 0 score 0-7.

With “RNA1{[moe](T)[sp].[moe](G)p.[moe](G)p.[moe](T)p.[moe](A)[sp].d(G)[sp].d(T)[sp].d(T)[sp].d(T)[sp].d(T)[sp].d(T)[sp].d([m5C])[sp].d(A)[sp].d(A)[sp].d(A)[sp].[moe](T)p.[moe]([m5C])p.[moe](A)[sp].[moe](A)}$$$$ (last 3' nucleoside missing)”, the 3 h FOB score came out at 0 score 0-7.

Regarding “RNA1{[moe](T)[sp].[moe](G)p.[moe](G)p.[moe](T)p.[moe](G)[sp].d(A)[sp].d(T)[sp].d(T)[sp].d(T)[sp].d(T)[sp].d(T)[sp].d(T)[sp].d([m5C])[sp].d([m5C])[sp].d(T)[sp].[moe](T)p.[moe](T)p.[moe]([m5C])[sp].[moe](T)}$$$$ (last 3' nucleoside missing)”, the 3 h FOB score worked out at 0 score 0-7.

Regarding “RNA1{[moe](T)[sp].[moe](G)p.[moe](G)p.[moe](T)p.[moe](G)[sp].d(T)[sp].d(T)[sp].d(A)[sp].d(T)[sp].d(A)[sp].d([m5C])[sp].d(A)[sp].d(T)[sp].d(T)[sp].d(T)[sp].[moe](A)p.[moe](G)p.[moe](G)[sp].[moe]([m5C])}$$$$ (last 3' nucleoside missing)”, the 3 h FOB score is 1 score 0-7.

Turning to “RNA1{[moe](T)[sp].[moe](G)p.[moe](G)p.[moe](T)p.[moe](T)[sp].d(A)[sp].d(G)[sp].d([m5C])[sp].d(T)[sp].d(T)[sp].d(T)[sp].d(T)[sp].d(T)[sp].d(T)[sp].d(T)[sp].[moe]([m5C])p.[moe](A)p.[moe]([m5C])[sp].[moe](T)}$$$$ (last 3' nucleoside missing)”, the 3 h FOB score stood at 6.25 score 0-7.

“RNA1{[moe](T)[sp].[moe](G)p.[moe](G)p.[moe](T)p.[moe](T)[sp].d(A)[sp].d(T)[sp].d(T)[sp].d(T)[sp].d(T)[sp].d(A)[sp].d(A)[sp].d(T)[sp].d(A)[sp].d(G)[sp].[moe](A)p.[moe](T)p.[moe](G)[sp].[moe](T)}$$$$ (last 3' nucleoside missing)” showed a 3 h FOB score of 1 score 0-7.
